Structures can show the parent of a compound that is named as a salt. Where two headings read alike, the source gives them in different places.

The values below come from patent US6875774B2, “Aza-bridged bicyclic amine derivatives for use as novel cholinergic receptor ligands” (The University of North Carolina, priority 2002, dated 2005).

The target of test [1] is T1, human M2 receptor (Homo sapiens, UniProt P08172).
T1 construct: made in house; host or cells: Sf9 insect cells (baculovirus)
T1 sequence (P08172 1-466): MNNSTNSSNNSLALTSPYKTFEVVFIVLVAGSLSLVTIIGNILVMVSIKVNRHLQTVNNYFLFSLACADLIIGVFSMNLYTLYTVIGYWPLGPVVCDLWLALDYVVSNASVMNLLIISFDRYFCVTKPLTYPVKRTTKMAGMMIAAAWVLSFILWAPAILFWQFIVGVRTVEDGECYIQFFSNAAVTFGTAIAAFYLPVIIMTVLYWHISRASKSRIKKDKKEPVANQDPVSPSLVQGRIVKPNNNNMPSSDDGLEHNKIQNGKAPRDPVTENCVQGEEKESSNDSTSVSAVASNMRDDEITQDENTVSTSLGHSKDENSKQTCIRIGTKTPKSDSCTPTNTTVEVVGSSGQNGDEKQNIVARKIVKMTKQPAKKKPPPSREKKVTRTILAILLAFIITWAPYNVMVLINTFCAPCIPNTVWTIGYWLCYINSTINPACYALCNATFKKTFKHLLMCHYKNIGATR
As to the kind of experiment: Muscarinic M2 competition binding assay ([3H]QNB, Sf9 membranes).

For test [2], the target named is T2, human M1 receptor (Homo sapiens, UniProt P11229).
T2 construct: made in house; host or cells: Sf9 insect cells (baculovirus)
T2 sequence (P11229 1-460): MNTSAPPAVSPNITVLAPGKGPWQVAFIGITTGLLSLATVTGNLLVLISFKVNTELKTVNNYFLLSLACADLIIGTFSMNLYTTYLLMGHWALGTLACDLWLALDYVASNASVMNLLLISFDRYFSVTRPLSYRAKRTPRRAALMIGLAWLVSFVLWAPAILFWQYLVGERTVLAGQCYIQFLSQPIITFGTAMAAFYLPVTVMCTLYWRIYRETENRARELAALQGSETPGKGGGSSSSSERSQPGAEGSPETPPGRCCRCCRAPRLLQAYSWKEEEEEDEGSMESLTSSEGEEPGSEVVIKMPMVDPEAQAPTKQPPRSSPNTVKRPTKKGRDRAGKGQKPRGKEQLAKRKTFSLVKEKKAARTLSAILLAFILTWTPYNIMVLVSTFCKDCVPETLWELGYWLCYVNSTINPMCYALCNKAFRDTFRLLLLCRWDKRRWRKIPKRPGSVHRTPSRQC
Kind of test: biochemical. The class given is binding.

Test [3] addresses T2, human M1 receptor. As to the kind of experiment: Functional assay of M1 muscarinic receptors ([3H]inositol phosphate accumulation in Sf9 cells). The class given is cell-based. The following applies: 100 μM carbachol with increasing amounts of compound (FIG. 3). As for the experimental part:
A functional assay of M1 muscarinic receptors was performed. M1 receptor activity was determined by measuring activation of the Gαq effector, phospholipase C-β. Recombinant human M1 receptor was expressed (48 h) from a baculovirus in Sf9 insect cells. The inositol lipid pool of cells was radiolabeled by incubating the cells overnight in inositol-free Grace's medium containing 1 μCi of myo-[^3H]inositol. The medium was supplemented with 50 mM HEPES, pH 7.4, and 10 mM LiCl (final concentration) and placed in a 27° C. bath for 10 min prior to assay. The assay was initiated by addition of the appropriate ligand(s) and incubations continued for 20 min. The assay was terminated by aspirating the medium and adding 750 μL of ice-cold 50 mM formic acid. After 30 min at 4° C., the samples were neutralized with 250 μL of 150 mM NH4OH. [^3H]Inositol phosphates were isolated by ion exchange chromatography on Dowex AG 1-X8 columns and quantitated by liquid scintillation counting. […] The data shown in FIG. 3 are the results of an experiment performed in triplicate.

As a reminder, the Ki is a measure of affinity in units of concentration, obtained from inhibition or displacement. For `CN(C)CC1CCC2CN1CCC2=O` (stereo not drawn) [Compound 12, exo-8-Dimethylaminomethyl-1-azabicyclo[3.3.1]nonan-4-one-HCl], the Ki in test [1] (hM2 receptor Ki) and in test [2] (hM1 receptor Ki) was over 100 µM in each case.

Turning to `CCOC(=O)C1=C(O)[C@H]2CC[C@@H](COCc3ccccc3)N(C1)C2` (relative stereo) [Compound 6, endo-8-Benzyloxymethyl-3-ethoxycarbonyl-4-hydroxy-1-azabicyclo[3.3.1]non-3-ene], the inhibition constant Ki in test [1] (read-out: hM2 receptor Ki) came to 7.35 ± 1.09 µM; in test [2] (read-out: hM1 receptor Ki) it was 10.3 ± 2.38 µM.

As to `CCOC(=O)C1=C(O)C2CCC(CN(C)C)N(C1)C2` (stereo not drawn) [Compound 8, endo-8-Dimethylaminomethyl-3-ethoxycarbonyl-4-hydroxy-1-azabicyclo[3.3.1]non-3-ene], the results for the Ki in test [1] (read-out: hM2 receptor Ki) and in test [2] (read-out: hM1 receptor Ki) were 47.6 ± 14.8 µM and 12.4 ± 3.74 µM, respectively.

As to `CCOC(=O)C1=C(O)C2CCCN(C1)C2` (stereo not drawn) [Compound 4, 3-Ethoxycarbonyl-4-hydroxy-1-azabicyclo[3.3.1]non-3-ene], the results for the Ki in test [1] (hM2 receptor Ki) and in test [2] (hM1 receptor Ki) were 2.85 ± 0.179 µM and 1.01 ± 0.068 µM, respectively.

Regarding `O=C1CCN2CCCC1C2` (stereo not drawn) [Compound 9, 1-Azabicyclo[3.3.1]nonan-4-one], the Ki in test [1] (hM2 receptor Ki) and in test [2] (hM1 receptor Ki) was over 100 µM each time.

`CCOC(=O)C1=C(O)C2CCC(CN(C)C)N(C1)C2` (stereo not drawn) [Compound 7, exo-8-Dimethylaminomethyl-3-ethoxycarbonyl-4-hydroxy-1-azabicyclo[3.3.1]non-3-ene]: the inhibition constant Ki was determined as 23.9 ± 13.7 µM in test [1] (read-out: hM2 receptor Ki) and 16.8 ± 15.2 µM in test [2] (read-out: hM1 receptor Ki).

For `CCOC(=O)C1=C(O)[C@H]2CC[C@H](COCc3ccccc3)N(C1)C2` (relative stereo) [Compound 5, exo-8-Benzyloxymethyl-3-ethoxycarbonyl-4-hydroxy-1-azabicyclo[3.3.1]non-3-ene], the “functional activity at muscarinic receptor” value in test [3] is “muscarinic receptor antagonist”. For the same compound, the Ki in test [1] (read-out: hM2 receptor Ki) was 0.0843 ± 0.0081 µM; in test [2] (read-out: hM1 receptor Ki), 0.203 ± 0.083 µM. Moreover, the “Ki fold greater than atropine at the human M2 receptor” value in test [1] (relative to atropine) amounted to 14 fold.

As for `CN(C)CC1CCC2CN1CCC2=O` (stereo not drawn) [Compound 13, endo-8-Dimethylaminomethyl-1-azabicyclo[3.3.1]nonan-4-one-HCl], the inhibition constant (Ki) in test [1] (read-out: hM2 receptor Ki) and in test [2] (read-out: hM1 receptor Ki) was over 100 µM throughout.
